Data published in US20240254157A1, “MACROLIDE COMPOUNDS” (VANDERBILT UNIVERSITY, priority 2021, published 2024).
Like-named read-outs stand apart in the source and are kept apart here.

Key:
[1] = system: E1A oncogene transformed cell lines; settings: cited from earlier work
[2] = system: untransformed lines; settings: cited from earlier work
[3] = system: NCI-60 cell lines that do not exhibit the Warburg effect; settings: cited from earlier work
[4] = system: primary AML patient samples; assay: Cell viability GI50 against primary AML patient samples (CellTiter-Glo); format: cell-based
Method: Compounds were diluted in DMSO (<0.05% DMSO) and dispensed into a 384-well plate using the Echo 555 liquid handler (Labcyte). Following the addition of compounds, cells were pipetted into the 384-well plates at a concentration of between 2,000 and 8,000 cells per well in IMDM or RPMI media, as noted above, supplemented with 10% FBS and incubated at 37° C., 5% CO2 in a tissue culture incubator. Plates were incubated for 48 hours, and cell viability was measured using the CellTiter-Glo reagent (Promega). Percent viability was defined as relative luminescence units (RLU) of each well divided by the RLU of cells in DMSO control. Dose-response curves and GI50 values were determined using linear regression of double-log transformed data (GraphPad Prism version 6.0 h). Control bone marrow-derived CD34+ cells were purchased from STEMCELL Technologies.

[5] = system: MV-4-11 cell line derived xenograft; assay: MV-4-11 cell line derived xenograft model; format: in vivo

SMILES	potency against transformed cells ([1]; transformed cells)	fold more potent against transformed cells than untransformed lines ([1]; transformed vs untransformed)	potency against untransformed lines [2]	activity in NCI-60 cell lines relying on oxidative phosphorylation [3]	GI50 ([4]; patient sample 17-03-006, data collected Jul. 8, 2021, read-out: GI50 from double log regression (converted))	GI50 ([4]; patient sample 17-03-006, data collected Jul. 8, 2021, read-out: viability GI50 from Prism)	GI50 ([4]; patient sample 17-03-006, data collected Mar. 8, 2022, read-out: GI50 from double log regression (converted))	GI50 ([4]; patient sample 17-03-006, data collected Mar. 8, 2022, read-out: viability GI50 from Prism)	GI50 ([4]; patient sample 18-12-001, data collected Jul. 8, 2021, read-out: GI50 from double log regression (converted))	GI50 ([4]; patient sample 18-12-001, data collected Jul. 8, 2021, read-out: viability GI50 from Prism)	GI50 ([4]; patient sample 18-12-001, data collected Mar. 8, 2022, read-out: GI50 from double log regression (converted))	GI50 ([4]; patient sample 29-09-002, data collected Jul. 8, 2021, read-out: GI50 from double log regression (converted))	GI50 ([4]; patient sample 29-09-002, data collected Jul. 8, 2021, read-out: viability GI50 from Prism)	efficacy in xenograft model [5]
COC[C@@H](C[C@H]1O[C@@](O)([C@H](O)[C@@H]2C[C@H](OC)[C@@H](O)CC/C=C(C)/C=C/[C@@H](O[C@@H]3O[C@@H](C)[C@H](OC)[C@@H](O)[C@@H]3O)[C@H](C)/C=C(C)/C=C(C)/C=C(\C)C(=O)O2)[C@H](C)[C@@H](O)[C@H]1C)OC1C[C@](C)(O)[C@@H](O[C@H]2C[C@@H](OC)[C@H](O)[C@@H](C)O2)[C@H](C)O1 (some centres unmarked) [apoptolidin, Apoptolidin A]	10 nM	1,000 fold	10 µM	low nanomolar										
COCCC[C@H]1O[C@@](O)([C@H](C)[C@@H]2C[C@H](OC)[C@H](O)\C=C(C)/C=C(C)\C=C(\C)[C@@H](O[C@@H]3O[C@@H](C)[C@H](O)[C@@H](O)[C@@H]3O)[C@H](C)\C=C(C)/C=C(OC)\C=C(\C)C(=O)O2)[C@H](OC)[C@@H](O)[C@]1(C)O[C@H]1C[C@H](O)[C@H](O[C@H]2C[C@@](C)(O)[C@H](O)[C@@H](C)O2)[C@@H](C)O1 [ammocidin A]					32.1 nM	10.3 nM	30.8 nM	9.5 nM	31.2 nM	30.2 nM	75.4 nM	21.7 nM	15.8 nM	comparable efficacy
